Key:
RM1-PGLS tumors = assay type: in vivo, murine subjects; conditions: overall survival post treatment; RM1-PGLS tumors; P < 0.0007 printed for 177Lu-RIMS-1
Method: FIG. 11A-11C show a visual schematic of RM1-PGLS tumor insertion in mice followed by T-cell population analysis (FIG. 11A), and tumor efficacy study analysis for in vivo tumor treatment with experimental ^177Lu-RIMS-1 compound compared with control compounds: ^177Lu-PSMA-617, unlabeled Lu-RIMS, and saline (FIG. 11B) measuring tumor volume (left), and percent survival (right).
Murine subjects were treated with RIMS compounds and tumor volume (FIG. 11B, left), subject viability measured as percent survival (FIG. 11B, right), subject weight (FIG. 11C), were described and analyzed as shown in FIGS. 11A-11C. Median overall survivability (OS) in murine subjects treated with RIMS compounds and control therapies.

[1] = Biodistribution in a xenograft model of prostate cancer with PC-3 PiP (PSMA(+)) and PC-3 flu (PSMA(−)) tumors; assay type: in vivo, Male NCr nude mice; conditions: PC-3 PiP/PC-3 flu xenograft, NCr nude mice
Method: Biodistribution analyses of ^177Lu-RIMS-1 and ^177Lu-PSMA-617 were carried out in a xenograft model of prostate cancer with a PC-3 PiP tumor (PSMA(+)) on the left shoulder of a murine subject, and a PC-3 flu tumor (PSMA(−)) on the right should of a murine subject. Murine subjects examined were Male NCr nude mice.

[2] = test system: CD8+ and CD4+ T-cell populations; test: T-cell population analysis in spleen and tumor of RM1-PGLS bearing mice; assay type: in vivo; parameters: unit not given here; conditions: RM1-PGLS bearing C57BL/6J mice
Method: FIG. 12A-12B show graphical representations of T-cell population analysis measuring cell viability in the spleen (FIG. 12A). and in the tumor (FIG. 12B) in vivo for subjects having RM1-PGLS tumors with either an experimental ^177Lu-RIMS compound, or a control compound selected from: ^177Lu-PSMA-617, unlabeled Lu-RIMS, or a control vehicle.
^177Lu-RIMS-1 and control compounds were evaluated for immune cell recruitment.

T-cells (CD3) = test: Immuno-PET ROI analysis of 89Zr-DFO-anti-CD3 after therapy (tumor infiltrating T-cells); assay type: in vivo, murine subjects
Method: FIG. 13A-13C describes a method and results for T-cell detection using immuno-positron emission tomography (PET).
FIG. 14A-14D show graphical representations of tumor infiltrating T-cell analysis after administration of a therapeutic compound or control. Infiltration was measured using immuno-positron emission tomography (PET).

[3] = OLINDA dosimetry to adult male from mouse biodistribution; conditions: Target Organ Adrenals

In the case of `O=C([O-])CN1CCN(CC(=O)[O-])CCN(CC(=O)NCC2CCC(C(=O)N[C@@H](Cc3ccc4ccccc4c3)C(=O)NCCCC[C@H](NC(=O)N[C@@H](CCC(=O)O)C(=O)O)C(=O)O)CC2)CCN(CC(=O)[O-])CC1.[177Lu+3]` (stereo partly drawn) [^177Lu-PSMA-617], the “Median OS” value (RM1-PGLS tumors) is reported as 15 days, the “Biodistribution Blood (% ID/g ± SD)” value ([1]; 2 h) is reported as 0.95 ± 0.53 % ID/g and the “Biodistribution Bone (% ID/g ± SD)” value ([1]; 2 h) is reported as 0.21 ± 0.11 % ID/g. For the same compound, the “Biodistribution Heart (% ID/g ± SD)” value ([1]; 2 h) was 0.27 ± 0.12 % ID/g, the “Biodistribution Kidney (% ID/g ± SD)” value ([1]; 2 h) was 5.12 ± 1.95 % ID/g and the “Biodistribution Liver (% ID/g ± SD)” value ([1]; 2 h) was 0.29 ± 0.14 % ID/g. The “Biodistribution Muscle (% ID/g ± SD)” value ([1]; 2 h) was 0.14 ± 0.05 % ID/g, the “Biodistribution PSMA (+) (PC3-PIP) tumor (% ID/g ± SD)” value ([1]; 2 h) was 11.78 ± 1.46 % ID/g and the “Biodistribution PSMA (−) (PC3-Flu) tumor (% ID/g ± SD)” value ([1]; 2 h) was 0.48 ± 0.2 % ID/g. For the same compound, the “Biodistribution Sm Int (% ID/g ± SD)” value ([1]; 2 h) was 0.28 ± 0.15 % ID/g, the “Biodistribution Spleen (% ID/g ± SD)” value ([1]; 2 h) was “.027 ± 0.14 % ID/g” and the “Biodistribution Blood (% ID/g ± SD)” value ([1]; 24 h) was 0.21 ± 0.13 % ID/g. The “Biodistribution Bone (% ID/g ± SD)” value ([1]; 24 h) was 0.07 ± 0.010 % ID/g, the “Biodistribution Heart (% ID/g ± SD)” value ([1]; 24 h) was 0.09 ± 0.05 % ID/g and the “Biodistribution Kidney (% ID/g ± SD)” value ([1]; 24 h) was 0.57 ± 0.29 % ID/g. The “Biodistribution Liver (% ID/g ± SD)” value ([1]; 24 h) was 0.08 ± 0.040 % ID/g, the “Biodistribution Muscle (% ID/g ± SD)” value ([1]; 24 h) was 0.04 ± 0.010 % ID/g and the “Biodistribution PSMA (+) (PC3-PIP) tumor (% ID/g ± SD)” value ([1]; 24 h) was 8.24 ± 3.22 % ID/g. For the same compound, the “Biodistribution PSMA (−) (PC3-Flu) tumor (% ID/g ± SD)” value ([1]; 24 h) was 0.18 ± 0.13 % ID/g, the “Biodistribution Sm Int (% ID/g ± SD)” value ([1]; 24 h) was 0.06 ± 0.020 % ID/g and the “Biodistribution Spleen (% ID/g ± SD)” value ([1]; 24 h) was 0.08 ± 0.040 % ID/g. The “Biodistribution Blood (% ID/g ± SD)” value ([1]; 72 h) was 0.03 ± 0.01 % ID/g, the “Biodistribution Bone (% ID/g ± SD)” value ([1]; 72 h) was 0.05 ± 0.01 % ID/g and the “Biodistribution Heart (% ID/g ± SD)” value ([1]; 72 h) was 0.03 ± 0.01 % ID/g. The “Biodistribution Kidney (% ID/g ± SD)” value ([1]; 72 h) was 0.08 ± 0.05 % ID/g, the “Biodistribution Liver (% ID/g ± SD)” value ([1]; 72 h) was 0.03 ± 0.01 % ID/g and the “Biodistribution Muscle (% ID/g ± SD)” value ([1]; 72 h) was 0.02 ± 0.01 % ID/g. For the same compound, the “Biodistribution PSMA (+) (PC3-PIP) tumor (% ID/g ± SD)” value ([1]; 72 h) was 3.65 ± 0.59 % ID/g, the “Biodistribution PSMA (−) (PC3-Flu) tumor (% ID/g ± SD)” value ([1]; 72 h) was 0.02 ± 0.01 % ID/g and the “Biodistribution Sm Int (% ID/g ± SD)” value ([1]; 72 h) was 0.03 ± 0.01 % ID/g. For the same compound, the “Biodistribution Spleen (% ID/g ± SD)” value ([1]; 72 h) was 0.04 ± 0.01 % ID/g, the “Total CD4+ T-cell population” value ([2]; Spleen) was 12.73 ± 2.17 and the “Total CD8+ T-cell population” value ([2]; Spleen) was 8.78 ± 1.61. The “Total CD4+ T-cell population” value ([2]; Tumor) was 1.47 ± 0.59, the “Total CD8+ T-cell population” value ([2]; Tumor) was 4.76 ± 1.40 and the “% Injected Dose/cc of 89Zr-DFO-anti-CD3 (ROI)” value (from here on “% Injected Dose/cc”) (T-cells (CD3); Blood, 8 days after administration of therapy) was 8.94 ± 0.34 % Injected Dose/cc. The “% Injected Dose/cc” value (T-cells (CD3); Blood, 9 days after administration of therapy) was 5.85 ± 2.22 % Injected Dose/cc, the “% Injected Dose/cc” value (T-cells (CD3); Blood, 10 days after administration of therapy) was 4.13 ± 0.68 % Injected Dose/cc and the “% Injected Dose/cc” value (T-cells (CD3); Blood, 11 days after administration of therapy) was 4.05 ± 1.24 % Injected Dose/cc. The “% Injected Dose/cc” value (T-cells (CD3); Blood, 12 days after administration of therapy) was 4.26 ± 0.62 % Injected Dose/cc, the “% Injected Dose/cc” value (T-cells (CD3); Spleen, 8 days after administration of therapy) was 21.55 ± 4.49 % Injected Dose/cc and the “% Injected Dose/cc” value (T-cells (CD3); Spleen, 9 days after administration of therapy) was 24.84 ± 4.91 % Injected Dose/cc. For the same compound, the “% Injected Dose/cc” value (T-cells (CD3); Spleen, 10 days after administration of therapy) was 27.09 ± 3.75 % Injected Dose/cc, the “% Injected Dose/cc” value (T-cells (CD3); Spleen, 11 days after administration of therapy) was 23.82 ± 3.55 % Injected Dose/cc and the “% Injected Dose/cc” value (T-cells (CD3); Spleen, 12 days after administration of therapy) was 24.65 ± 0.81 % Injected Dose/cc. For the same compound, the “% Injected Dose/cc” value (T-cells (CD3); Tumor, 8 days after administration of therapy) was 10.27 ± 0.024 % Injected Dose/cc, the “% Injected Dose/cc” value (T-cells (CD3); Tumor, 9 days after administration of therapy) was 7.83 ± 1.66 % Injected Dose/cc and the “% Injected Dose/cc” value (T-cells (CD3); Tumor, 10 days after administration of therapy) was 6.67 ± 3.63 % Injected Dose/cc. For the same compound, the “% Injected Dose/cc” value (T-cells (CD3); Tumor, 11 days after administration of therapy) was 3.90 ± 0.35 % Injected Dose/cc, the “% Injected Dose/cc” value (T-cells (CD3); Tumor, 12 days after administration of therapy) was 2.72 ± 0.81 % Injected Dose/cc and the “OLINDA dosimetry to Adult Male, Adrenals” value [3] was 1.32 μSv/MBq.
